Measured values from patent US11344603B2, “Cytokine modulation” (AUCKLAND UNISERVICES LIMITED, priority 2017, dated 2022).
“Also recorded” adds a separate entry of the source.

Assays:
ARPE-19 cells [1] = assay: Cytokine and chemokine measurement by Cytometric Bead Array in ARPE-19 incubation medium; format: cell-based, human
Experimental: (§1) Human adult retinal pigmented epithelial cells (ARPE-19; American Type Culture Collection, Manassas, Va.) were cultured in Dulbecco's Modified Eagle Medium Nutrient Mixture F-12 medium (DMEM-F12; Thermofisher Scientific Inc., USA) supplemented with 10% foetal bovine serum (FBS; Invitrogen) and a 1× antibiotics and antimycotics mixture (AA, 100× stock) at 37° C. in a humidified 5% C02 incubator. Cells were grown in T75 flasks and the medium was changed twice per week until confluent and ready for experimentation.
(§2) At passage 6-12, cells were plated at 2.5×10^5 cells/mL in 8-well chamber slides for immunohistochemical studies or 24-well plates for ATP release assay and cytometric bead array analysis. Once confluent, the culture medium was changed to treatments in serum-free DMEM-F12 containing 1×AA. Some cultures were challenged with 15 mM glucose (High glucose (high glucose) group), a combination of pro-inflammatory cytokines 10 ng/mL TNF-α (Peprotech, USA) and 10 ng/mL IL-1β (Peprotech, USA) (Cytokines group), or a combination of high glucose, 10 ng/mL TNF-α and 10 ng/mL IL-1β (high glucose+Cytokines group). The untreated group received a medium change with no additional treatments (Basal group). All assessments were carried out 24 h post-treatment.
(§3) Peptide5 (H-Val-Asp-Cys-Phe-Leu-Ser-Arg-Pro-Thr-Glu-Lys-Thr-OH (SEQ ID NO: 1); China Peptides, China) was administered to cells challenged with high glucose and pro-inflammatory cytokines. Concentration-dependent effects were studied at 5, 10, 25 and 50 μM of […] after 24 h. […] O'Carroll, S J, et al. Connexin43 mimetic peptides reduce swelling, astrogliosis, and neuronal cell death after spinal cord injury. Cell communication & adhesion, 15:27-42 (2008).
Soluble cytokines and chemokines in the ARPE-19 incubation medium were measured simultaneously using multiplexed bead-based immunoassays, Cytometric Bead Array (CBA, BD Biosciences, USA). Three tests of 50 μL volume was taken from duplicate cultures in 24-well plates after 24 h and transferred into a 96-well plate to be used for the CBA assay. The analysis included six tests per group. The assay was conducted according to the manufacturer's instructions. Briefly, a ten-point standard curve ranging from 0 to 5000 pg/mL for each cytokine was prepared using the cytokine standard provided in each kit. The cytokines measured were human soluble CD54 (sICAM-1, cat #560269, BD Biosciences, USA), IL-6 (cat #558276), IL-8 (cat #558227), and MCP-1 (cat #558287). Samples and cytokine standards were incubated in the capture bead mixture for 1 h and Phycoerythrin (PE)-conjugated antibodies against each cytokine were added to the sample-bead mixture for 2 h incubation at room temperature. All buffers used were from the CBA human soluble protein master buffer kit (cat #558265, BD Biosciences, USA). Beads were washed and analysed using an Accuri C6 flow cytometer (BD Biosciences, USA). Mean fluorescence intensity for each bead cluster was converted into cytokine concentrations based on the ten-point standard curve using FCAP Array™ software (BD version 3.1) as described previously (O'Carroll et al., 2015).

ARPE-19 cells [2] = assay: VEGF secretion by ARPE-19 cells; format: cell-based, human; settings: for VEGF release: high glucose + cytokines + Peptagon, versus basal
Experimental: as §1, §2, §3

ARPE-19 cells [3] = assay: ATP release assay (ATPlite luminescence); format: cell-based, human; settings: high glucose + cytokines, 24 h, compared to high glucose and cytokines
Experimental: as §1
At passage 6-12, cells were plated at 2.5×10^5 cells/mL in 8-well chamber slides for immunohistochemical studies or 24-well plates for ATP release assay and cytometric bead array analysis. Once confluent, the culture medium was changed to treatments in serum-free DMEM-F12 containing 1×AA. […]
After 24 h of incubation in treatment media, ATP release was measured in triplicates using 50 μL of culture medium taken from duplicate wells of 24-well plates. […] ATP released into the culture medium was measured using the ATPlite Luminescence ATP Detection Assay System as per manufacturer instructions (PerkinElmer, USA). ATP release (%) in Peptide5 treated cultures (treated group) were calculated relative to cells treated with high glucose and cytokines (injury group) using the formula: (OD490 of treated group−OD490 of injury group)/(OD490 of injury group)×100%.

[4] = test system: NLRP3 inflammasome complex; assay: Immunohistochemical labelling and quantification of NLRP3 inflammasome complexes; format: cell-based, human; settings: 24 h
Experimental: At passage 6-12, cells were plated at 2.5×10^5 cells/mL in 8-well chamber slides for immunohistochemical studies or 24-well plates for ATP release assay and cytometric bead array analysis. Once confluent, the culture medium was changed to treatments in serum-free DMEM-F12 containing 1×AA. Some cultures were challenged with 15 mM glucose (High glucose (high glucose) group), a combination of pro-inflammatory cytokines 10 ng/mL TNF-α (Peprotech, USA) and 10 ng/mL IL-1β (Peprotech, USA) (Cytokines group), or a combination of high glucose, 10 ng/mL TNF-α and 10 ng/mL IL-1β (high glucose+Cytokines group). The untreated group received a medium change with no additional treatments (Basal group). All assessments were carried out 24 h post-treatment. After 24 h of incubation in treatment media, cells were fixed with 4% paraformaldehyde for 10 min and permeabilised with 0.1% Triton X-100 in phosphate buffer saline (PBS) for 10 min. Cells were then incubated with mouse anti-NLRP3 (1:100; Abcam, USA) at 4° C. overnight followed by washing in PBS three times for 15 min. Goat anti-mouse Cy3 (1:500; Jackson Immuno Research, USA) secondary antibodies were applied to the slides and incubated at room temperature for 3 h. […] For NLRP3 immunohistochemical analysis, four images were analysed per well and the entire experiment was repeated three times. […] The number of NLPR3 spots were counted for each image.

connexin 43 hemichannels = settings: cited from earlier work
[5] = biological target: Cx43 carboxy-terminal domain (Rattus norvegicus, UniProt P08050); settings: low pH conditions; Verma et al. 2009, 2010; cited from earlier work
[6] = high glucose + cytokines (10 ng/mL TNF-α, 10 ng/mL IL-1β), Peptagon 5, 10, 25, 50 μM, 24 h
[7] = high glucose + cytokines, 5, 10, 25, 50 μM, 24 h
[8] = high glucose + cytokines, Peptagon 25 μM, 24 h
[9] = 10 nM exogenous ATP alone, mean ± SD
[10] = high glucose + cytokines + Peptagon 25 μM + ATP 10 nM, 24 h

Sequence of Cx43 carboxy-terminal domain (P08050 whole entry, the tested form may be a part): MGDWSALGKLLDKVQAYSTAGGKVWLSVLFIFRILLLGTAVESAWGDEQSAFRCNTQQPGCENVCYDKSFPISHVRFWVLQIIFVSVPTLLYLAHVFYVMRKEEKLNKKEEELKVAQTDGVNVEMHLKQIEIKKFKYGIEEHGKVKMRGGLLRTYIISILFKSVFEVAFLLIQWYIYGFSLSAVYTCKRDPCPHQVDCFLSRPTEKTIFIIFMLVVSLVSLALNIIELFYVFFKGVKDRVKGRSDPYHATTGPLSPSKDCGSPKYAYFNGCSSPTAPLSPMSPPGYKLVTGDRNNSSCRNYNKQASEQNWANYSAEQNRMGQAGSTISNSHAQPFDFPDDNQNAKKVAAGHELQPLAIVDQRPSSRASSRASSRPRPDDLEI

Molecule: H-Val-Asp-Cys-Phe-Leu-Ser-Arg-Pro-Thr-Glu-Lys-Thr-OH (H-VDCFLSRPTEKT-OH) [Peptagon]
- IL-6 secretion (ARPE-19 cells [1]; [6]): significantly reduced
- IL-8 secretion (ARPE-19 cells [1]; [6]): significantly reduced
- MCP-1 secretion (ARPE-19 cells [1]; [6]): significantly reduced
- sICAM-1 secretion (ARPE-19 cells [1]; [6]): significantly reduced; also recorded: decrease
- concentration dependence of decrease in IL-6, IL-8 and MCP-1 secretion (ARPE-19 cells [1]; [7]): slight trend towards a concentration-dependent decrease; also recorded: concentration-dependent manner
- concentration dependence of decrease in sICAM-1 secretion (ARPE-19 cells [1]; [7]): all peptide concentrations had the same effect
- IL-6 secretion (ARPE-19 cells [1]; [8]): reduced secretion
- IL-8 secretion (ARPE-19 cells [1]; [8]): reduced secretion
- MCP-1 secretion (ARPE-19 cells [1]; [8]): reduced secretion
- sICAM-1 secretion (ARPE-19 cells [1]; [8]): reduced secretion
- VEGF release (ARPE-19 cells [2]; 24 h): restored VEGF secretion back to basal levels
- VEGF release (ARPE-19 cells [2]; 24 h, listed as Peptide5): completely arrested
- ATP release (ARPE-19 cells [3]): significantly reduced
- ATP release (ARPE-19 cells [3]; listed as Peptide5): prevented
- NLRP3 inflammasome assembly ([4]; high glucose + inflammatory cytokines): blocked inflammasome assembly
- connexin 43 hemichannel block versus gap junction coupling (connexin 43 hemichannels; 5, 10, 25 and 50 μM, O'Carroll et al. 2008): block connexin 43 hemichannels with minimal effect on gap junction cell-cell coupling
- dose dependent action on hemichannels and gap junctions (connexin 43 hemichannels; O'Carroll et al., 2008): lower doses blocking gap junction hemichannel opening and higher doses uncoupling gap junctions between cells

Molecule: Nc1ncnc2c1ncn2[C@@H]1O[C@H](COP(=O)(O)OP(=O)(O)OP(=O)(O)O)[C@@H](O)[C@H]1O [ATP]
- change in IL-6 secretion compared to basal conditions (ARPE-19 cells [1]; 10 nM exogenous ATP alone): no change
- change in IL-8 secretion compared to basal conditions (ARPE-19 cells [1]; 10 nM exogenous ATP alone): no change
- change in sICAM-1 secretion compared to basal conditions (ARPE-19 cells [1]; 10 nM exogenous ATP alone): no change
- IL-6 secretion in response to extracellular ATP (ARPE-19 cells [1]; [9]): 8.22 ± 2.25 pg/mL
- IL-8 secretion in response to extracellular ATP (ARPE-19 cells [1]; [9]): 67.70 ± 11.44 pg/mL
- MCP-1 secretion in response to extracellular ATP (ARPE-19 cells [1]; [9]): 230.72 ± 37.08 pg/mL
- sICAM-1 secretion in response to extracellular ATP (ARPE-19 cells [1]; [9]): 0 pg/mL
- change in MCP-1 release compared to basal conditions (ARPE-19 cells [1]; 10 nM exogenous ATP alone, p≤0.0001): decrease
- effect of exogenous ATP on Peptagon-mediated protection against IL-6 release (ARPE-19 cells [1]; [10]): back towards injury levels; also recorded: reversed
- effect of exogenous ATP on Peptagon-mediated protection against IL-8 release (ARPE-19 cells [1]; [10]): back towards injury levels; also recorded: reversed
- effect of exogenous ATP on Peptagon-mediated protection against MCP-1 release (ARPE-19 cells [1]; [10]): back towards injury levels; also recorded: reversed
- effect of exogenous ATP on Peptagon-mediated protection against sICAM-1 release (ARPE-19 cells [1]; [10]): did not reach statistical significance
- change in VEGF secretion compared to basal conditions (ARPE-19 cells [2]; 10 nM exogenous ATP alone): no change
- VEGF secretion in response to extracellular ATP (ARPE-19 cells [2]; [9]): 56.62 ± 8.94 pg/mL
- effect of exogenous ATP on Peptagon hemichannel block effect on VEGF release (ARPE-19 cells [2]; high glucose + cytokines + Peptagon + exogenous ATP, 24 h): completely overrode; also recorded: negated hemichannel blocker-mediated protection against VEGF release
- effect of exogenous ATP on Peptagon block of NLRP3 inflammasome assembly ([4]; high glucose + cytokines + Peptagon + 10 nM ATP): overrode the hemichannel blocker treatment

Molecule: RRNYRRNY [linear peptide RRNYRRNY targeting the Cx43 carboxy-terminal domain]
- Cx43-based gap junction closure [5]: prevent Cx43-based gap junction closure under low pH conditions
